Experimental data from article PMC9421653 (Journal of Medicinal Chemistry, 2022).
“Also recorded” adds a separate entry of the source.

Assays:
[1] = biological target: GPR84-Gαi2 fusion protein, Phe335Ala (Homo sapiens, UniProt Q9NQS5, F335A); assay: [35S]GTPγS binding, GPR84-Gαi2 fusion protein, Phe335Ala; settings: Phe335 to Ala, versus wild type
human FFAR3 = biological target: T1, human FFAR3 (Homo sapiens, UniProt O14843); assay: [35S]GTPγS binding, block of C3 (propionate) at FFAR3; type: biochemical; settings: tested at 10 μM
T1 construct: expressed in transfected cells; host or cells: Flp-In T-REx 293 cells, induced; membrane preparations
T1 sequence (O14843 1-346): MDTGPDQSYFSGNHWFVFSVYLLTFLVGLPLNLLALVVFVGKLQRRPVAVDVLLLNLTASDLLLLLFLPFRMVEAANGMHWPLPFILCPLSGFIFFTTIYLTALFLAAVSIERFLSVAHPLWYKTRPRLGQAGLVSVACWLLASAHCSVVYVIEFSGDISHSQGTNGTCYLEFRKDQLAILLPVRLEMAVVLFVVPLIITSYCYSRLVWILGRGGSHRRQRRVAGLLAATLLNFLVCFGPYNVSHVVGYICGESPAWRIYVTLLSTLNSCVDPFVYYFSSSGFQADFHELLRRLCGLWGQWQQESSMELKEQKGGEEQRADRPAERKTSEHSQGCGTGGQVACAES

[2] = biological target: GPR84-Gαi2 fusion protein, Phe101Ala (Homo sapiens, UniProt Q9NQS5, F101A); assay: [35S]GTPγS binding, GPR84-Gαi2 fusion protein, Phe101Ala; settings: Phe101 to Ala, versus wild type
Chain of GPR84-Gαi2 fusion protein, Phe101Ala (Q9NQS5 whole entry F101A, the tested form may be a part): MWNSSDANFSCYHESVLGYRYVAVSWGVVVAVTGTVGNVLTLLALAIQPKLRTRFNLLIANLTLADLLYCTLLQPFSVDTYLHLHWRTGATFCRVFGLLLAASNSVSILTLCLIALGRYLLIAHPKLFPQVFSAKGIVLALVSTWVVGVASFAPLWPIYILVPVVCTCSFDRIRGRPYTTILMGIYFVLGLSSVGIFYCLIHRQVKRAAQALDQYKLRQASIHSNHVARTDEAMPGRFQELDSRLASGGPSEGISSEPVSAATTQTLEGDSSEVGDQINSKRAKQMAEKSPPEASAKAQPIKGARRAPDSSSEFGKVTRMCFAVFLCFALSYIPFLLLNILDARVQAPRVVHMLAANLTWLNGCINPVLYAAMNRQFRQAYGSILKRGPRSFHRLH
Chain of GPR84-Gαi2 fusion protein, Phe101Ala (P04899 2-355 partner): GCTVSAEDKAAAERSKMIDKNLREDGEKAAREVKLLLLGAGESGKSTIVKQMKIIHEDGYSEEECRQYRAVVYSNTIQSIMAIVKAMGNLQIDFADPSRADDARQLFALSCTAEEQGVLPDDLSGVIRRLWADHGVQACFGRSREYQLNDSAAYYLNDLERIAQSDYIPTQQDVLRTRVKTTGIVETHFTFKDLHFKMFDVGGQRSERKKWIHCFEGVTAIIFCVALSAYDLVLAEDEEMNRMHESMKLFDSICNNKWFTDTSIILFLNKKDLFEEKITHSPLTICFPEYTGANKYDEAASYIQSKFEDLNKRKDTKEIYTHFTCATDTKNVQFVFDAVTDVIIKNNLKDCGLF

mouse GPR84 = settings: cited from earlier work
human GPR84 = biological target: T2, human GPR84 (Homo sapiens, UniProt P04899+Q9NQS5); assay: biochemical; type: biochemical; settings: [35S]GTPγS assay; negative log of the IC50 in molar; mean ± SEM
T2 construct: expressed in transfected cells; host or cells: Flp-In T-REx 293 cells, doxycycline-induced; membrane preparations
T2 sequence (Q9NQS5+P04899 fused): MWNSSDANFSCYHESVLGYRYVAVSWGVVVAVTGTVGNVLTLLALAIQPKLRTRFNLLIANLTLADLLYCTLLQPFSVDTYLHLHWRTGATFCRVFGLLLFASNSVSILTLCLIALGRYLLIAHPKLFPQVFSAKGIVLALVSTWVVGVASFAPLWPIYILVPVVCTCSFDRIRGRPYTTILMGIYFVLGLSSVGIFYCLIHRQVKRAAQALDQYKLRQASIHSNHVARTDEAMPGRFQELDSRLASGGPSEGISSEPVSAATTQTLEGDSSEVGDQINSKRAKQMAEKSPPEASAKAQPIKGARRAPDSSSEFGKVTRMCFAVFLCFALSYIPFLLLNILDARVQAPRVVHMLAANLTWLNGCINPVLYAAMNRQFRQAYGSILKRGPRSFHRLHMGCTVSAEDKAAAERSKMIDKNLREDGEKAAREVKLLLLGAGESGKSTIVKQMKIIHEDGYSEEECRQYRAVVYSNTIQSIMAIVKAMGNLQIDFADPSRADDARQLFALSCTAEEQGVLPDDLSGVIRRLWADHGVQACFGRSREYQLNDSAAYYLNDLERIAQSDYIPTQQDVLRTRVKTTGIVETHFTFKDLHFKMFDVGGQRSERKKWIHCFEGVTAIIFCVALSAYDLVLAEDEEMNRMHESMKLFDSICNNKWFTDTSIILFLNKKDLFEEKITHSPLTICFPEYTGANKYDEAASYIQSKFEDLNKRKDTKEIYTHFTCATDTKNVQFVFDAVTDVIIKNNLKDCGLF

[3] = biological target: GPR84-Gαi2 fusion protein, Trp360Ala (Homo sapiens, UniProt Q9NQS5, W360A); assay: [35S]GTPγS binding, GPR84-Gαi2 fusion protein, Trp360Ala; settings: Trp360 to Ala, versus wild type
Chain of GPR84-Gαi2 fusion protein, Trp360Ala (Q9NQS5 whole entry W360A, the tested form may be a part): as the sequence (Q9NQS5 whole entry F101A, the tested form may be a part) above, with A101F, W360A counted along it
Chain of GPR84-Gαi2 fusion protein, Trp360Ala (P04899 2-355 partner): as the sequence (P04899 2-355 partner) above

human FFAR2 = biological target: T3, human FFAR2 (Homo sapiens, UniProt O15552); assay: [35S]GTPγS binding, block of C3 (propionate) at FFAR2; type: biochemical; settings: tested at 10 μM
T3 construct: expressed in transfected cells; host or cells: Flp-In T-REx 293 cells, induced; membrane preparations
T3 sequence (O15552 1-330): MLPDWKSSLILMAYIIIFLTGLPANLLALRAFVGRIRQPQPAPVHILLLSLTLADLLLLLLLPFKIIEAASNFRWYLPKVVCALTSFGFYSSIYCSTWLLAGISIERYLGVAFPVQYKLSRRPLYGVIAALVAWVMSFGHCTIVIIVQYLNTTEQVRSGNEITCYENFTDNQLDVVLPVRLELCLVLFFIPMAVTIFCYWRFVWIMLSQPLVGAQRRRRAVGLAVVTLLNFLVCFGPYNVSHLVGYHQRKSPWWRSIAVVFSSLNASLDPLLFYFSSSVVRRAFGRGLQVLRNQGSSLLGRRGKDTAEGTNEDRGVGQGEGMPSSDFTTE

Chain of GPR84-Gαi2 fusion protein, Phe335Ala (Q9NQS5 whole entry F335A, the tested form may be a part): as the sequence (Q9NQS5 whole entry F101A, the tested form may be a part) above, with A101F, F335A counted along it
Chain of GPR84-Gαi2 fusion protein, Phe335Ala (P04899 2-355 partner): as the sequence (P04899 2-355 partner) above

Compound: COc1ccc(-c2nnc(Cc3c[nH]c4ccccc34)nc2-c2ccc(OC)cc2)cc1 [Compound 1, 3-((5,6-Bis(4-methoxyphenyl)-1,2,4-triazin-3-yl)methyl)-1H-indole]
- affinity to block effects of the allosteric agonist PSB-16671 [1]: substantial loss of affinity
- block of the actions of the C3 fatty acid propionate at FFAR3 (human FFAR3): no ability to block; also recorded: did not block
- affinity to block effects of the allosteric agonist PSB-16671 [2]: substantial loss of affinity
- antagonism of mouse GPR84 (mouse GPR84): unable to antagonize
- GTPγS (pIC50) (human GPR84): 7.93 ± 0.21
- affinity to block effects of the allosteric agonist PSB-16671 [3]: substantial loss of affinity
- block of the actions of the C3 fatty acid propionate at FFAR2 (human FFAR2): no ability to block; also recorded: did not block
